Measurements as given in patent publication US20040142317A1, “Use of amino acid transporter atbo,+ as a delivery system for drugs and prodrugs” (priority 2003, published 2004).

Experiments:
mouse ATB^0,+ = molecular target: T1, mouse ATB^0,+ (Mus musculus, UniProt Q9JMA9); conditions: D-amino acid 1 mM; NaCl pH 7.5
T1 sequence (Q9JMA9 1-638): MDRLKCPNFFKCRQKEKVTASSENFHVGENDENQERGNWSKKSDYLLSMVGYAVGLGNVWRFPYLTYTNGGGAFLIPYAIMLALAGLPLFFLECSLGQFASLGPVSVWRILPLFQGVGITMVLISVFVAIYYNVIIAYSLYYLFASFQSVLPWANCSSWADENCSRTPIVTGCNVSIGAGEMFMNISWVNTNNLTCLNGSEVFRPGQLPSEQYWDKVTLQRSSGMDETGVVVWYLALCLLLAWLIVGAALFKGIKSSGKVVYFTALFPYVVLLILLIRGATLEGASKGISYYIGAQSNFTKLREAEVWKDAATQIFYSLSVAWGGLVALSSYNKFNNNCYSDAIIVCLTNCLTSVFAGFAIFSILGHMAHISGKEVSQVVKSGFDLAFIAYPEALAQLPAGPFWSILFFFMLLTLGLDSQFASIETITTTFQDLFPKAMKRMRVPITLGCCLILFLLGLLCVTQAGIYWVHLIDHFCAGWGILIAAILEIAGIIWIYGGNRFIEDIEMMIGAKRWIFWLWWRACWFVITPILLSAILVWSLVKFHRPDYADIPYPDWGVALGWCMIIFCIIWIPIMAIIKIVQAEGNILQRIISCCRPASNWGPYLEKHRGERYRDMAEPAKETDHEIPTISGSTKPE

ATA1 = molecular target: T2, ATA1 (Homo sapiens, UniProt Q9H2H9); assay: D-[3H]-serine transport in HRPE cells transfected with transporter cDNA; assay type: cell-based; conditions: D-[3H]-serine 5 μM
T2 construct: expressed in transfected cells; host or cells: HRPE cells
T2 sequence (Q9H2H9 1-487): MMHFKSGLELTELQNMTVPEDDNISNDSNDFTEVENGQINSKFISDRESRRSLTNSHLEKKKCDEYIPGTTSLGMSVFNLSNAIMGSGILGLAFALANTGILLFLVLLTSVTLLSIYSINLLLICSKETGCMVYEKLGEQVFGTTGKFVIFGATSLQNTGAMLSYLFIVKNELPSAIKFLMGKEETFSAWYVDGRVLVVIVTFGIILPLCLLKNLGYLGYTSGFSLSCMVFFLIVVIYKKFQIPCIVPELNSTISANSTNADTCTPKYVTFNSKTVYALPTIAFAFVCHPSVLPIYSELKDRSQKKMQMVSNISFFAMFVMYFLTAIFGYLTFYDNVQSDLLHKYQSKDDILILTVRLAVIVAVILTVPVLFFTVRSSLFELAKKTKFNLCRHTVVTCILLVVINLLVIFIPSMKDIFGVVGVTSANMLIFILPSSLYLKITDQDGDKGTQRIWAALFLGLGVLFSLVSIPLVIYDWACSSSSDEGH
Method: (§1) Transport of D-[^3H]-serine (5 μM) was measured in HRPE cells transfected with cDNA of each transporter.
(§2) The present inventors evaluated the function of 10 different amino acid transporter clones with respect to transport of D-serine in heterologous expression systems (FIG. 11). All of these transporters are expressed in the intestinal tract. The list of the transporters tested include three energy-independent, heterodimeric facilitative transporters (L1, L2, and b^0,+), three subtypes of the Na^+-coupled system A (ATA1, ATA2, and ATA3), two subtypes of the Na^+- and H^+-coupled system N (SN1 and SN2), the Na^+-coupled system ATB^0, and the Na^+- and Cl^−-coupled system ATB^0,+. […] The ability to transport D-serine was the highest for the Na^+- and Cl^−-coupled transporter ATB^0,+. ATB^0,+ belongs to the gene family of neurotransmitter transporters whose transport function is energized by multiple driving forces, namely a Na^+ gradient, a Cl^− gradient, and membrane potential. […] Based on the energetics of these two transport systems, ATB^0,+ is expected to play the leading role in this process.

ATB^0 = molecular target: T3, ATB^0 (Homo sapiens, UniProt Q15758); assay: as above; assay type: cell-based; parameters: expressed in transfected cells; host or cells: HRPE cells; conditions: D-[3H]-serine 5 μM
T3 sequence (Q15758 1-541): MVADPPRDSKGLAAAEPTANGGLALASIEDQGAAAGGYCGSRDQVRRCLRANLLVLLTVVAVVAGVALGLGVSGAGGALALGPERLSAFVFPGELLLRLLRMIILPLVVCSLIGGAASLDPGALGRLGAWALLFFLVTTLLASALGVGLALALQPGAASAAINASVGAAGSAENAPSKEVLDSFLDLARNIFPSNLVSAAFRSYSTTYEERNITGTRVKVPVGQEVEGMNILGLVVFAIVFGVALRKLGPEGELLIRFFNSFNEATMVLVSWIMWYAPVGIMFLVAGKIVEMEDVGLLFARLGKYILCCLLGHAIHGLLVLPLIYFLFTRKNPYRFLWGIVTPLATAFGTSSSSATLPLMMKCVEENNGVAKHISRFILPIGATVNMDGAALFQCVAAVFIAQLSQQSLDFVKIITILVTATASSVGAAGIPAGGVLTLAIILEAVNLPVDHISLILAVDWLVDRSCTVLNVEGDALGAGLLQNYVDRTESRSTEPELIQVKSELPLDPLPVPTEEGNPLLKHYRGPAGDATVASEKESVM
Method: as §1, §2

## N[C@H](CO)C(=O)O [D-Serine, D-serine]
Mouse ATB^0,+
  Current in X. laevis oocytes (nA), D-isomer: 267 ± 23 nA
ATA1
  D-serine transport: showed D-serine transport activity
ATB^0
  D-serine transport: able to transport D-serine to a marked extent
